From ChEMBL document CHEMBL6127052, “Discovery of membrane-targeting amphiphilic honokiol derivatives containing an oxazolethione moiety to combat methicillin-resistant Staphylococcus aureus (MRSA) infections” (Eur J Med Chem, 2024)
Activity calls are given as the source filed them. No cut-off for these calls is given here.

What was measured:
Staphylococcus aureus [1] = experiment: Antibacterial activity against methicillin-resistant Staphylococcus aureus clinical isolate M12 infected in KM mouse assessed as decrease in bacterial survival rate at 5 mg/kg, sc measured after 24 hrs by drop-plate counting method relative to control; type: functional
Staphylococcus aureus [2] = experiment: Disruption of cell membrane in methicillin-resistant Staphylococcus aureus clinical isolate M12 assessed as fold increase in DNA leakage at 8 times MIC incubated for 4 hrs by […] relative to control; type: functional
[3] = Toxicity in KM mouse assessed as degeneration of lung epithelial cells at 20 mg/kg, sc measured after 24 hrs by H and E staining based analysis; type: organism-based; settings: in vivo
[4] = Toxicity in KM mouse infected with methicillin-resistant Staphylococcus aureus clinical isolate M12 assessed as damage in spleen at 5 to 10 mg/kg, sc measured after 24 hrs by H and E staining based analysis; type: organism-based; settings: in vivo, dose 5-10 mg/kg
[5] = Toxicity in KM mouse assessed as edema in hepatocytes at 20 mg/kg, sc measured after 24 hrs by H and E staining based analysis; type: organism-based; settings: in vivo
Staphylococcus aureus [6] = experiment: Antibacterial activity against methicillin-resistant Staphylococcus aureus clinical isolate M12 infected in KM mouse assessed as decrease in pus formation in subcutaneous area at 10 mg/kg, sc measured after 24 hrs; type: functional, organism-based
Staphylococcus aureus [7] = experiment: Induction of membrane permeability in methicillin-resistant Staphylococcus aureus clinical isolate M12 at 8 to 32 times MIC measured for 15 mins by SYTOX Green dye based analysis; type: functional, organism-based
Escherichia coli = experiment: Antibacterial activity against Escherichia coli ATCC 25922 by CLSI based micro-broth dilution method; type: functional
Staphylococcus aureus [8] = experiment: Antibacterial activity against methicillin-resistant Staphylococcus aureus clinical isolate M12 infected in KM mouse assessed as decrease in bacterial load in skin tissues at 5 mg/kg, sc measured after 24 hrs by drop-plate counting method (reference value: 6.7); type: functional
Staphylococcus aureus [9] = experiment: Antibacterial activity against methicillin-resistant Staphylococcus aureus clinical isolate M12 infected in KM mouse assessed as decrease in bacterial survival rate at 10 mg/kg, sc measured after 24 hrs by drop-plate counting method relative to control; type: functional
Staphylococcus aureus [10] = experiment: Bactericidal activity against Staphylococcus aureus ATCC 29213 at 8 times MIC incubated for 6 hrs by time-kill assay relative to control; type: functional
Staphylococcus aureus [11] = experiment: Antibacterial activity against methicillin-resistant Staphylococcus aureus clinical isolate M12 by CLSI based micro-broth dilution method; type: functional
[12] = Toxicity in KM mouse assessed as pathological change in lung at 20 mg/kg, sc measured after 24 hrs by H and E staining based analysis; type: organism-based; settings: in vivo
[13] = Toxicity in KM mouse assessed as skin abnormality at <20 mg/kg, sc; type: organism-based; settings: in vivo
[14] = Toxicity in KM mouse assessed as mental abnormality at 5 to 80 mg/kg, sc; type: organism-based; settings: in vivo, dose 5-80 mg/kg
Staphylococcus aureus [15] = experiment: Bactericidal activity against Staphylococcus aureus ATCC 29213 assessed as inhibition of bacterial growth at 4 times MIC incubated upto 8 hrs by time-kill assay; type: functional, organism-based
[16] = Toxicity in KM mouse assessed as intact structure in skin layers at 20 mg/kg, sc measured after 24 hrs by H and E staining based analysis; type: organism-based; settings: in vivo
Staphylococcus aureus [17] = experiment: Antibacterial activity against methicillin-resistant Staphylococcus aureus clinical isolate M12 infected in KM mouse assessed as decrease in neutrophils at subcutaneous tissues at 5 to 10 mg/kg, sc measured after 24 hrs; type: functional, organism-based; settings: dose 5-10 mg/kg
Staphylococcus aureus [18] = experiment: Induction of morphological changes in methicillin-resistant Staphylococcus aureus clinical isolate M12 assessed as rupture of bacterial bodies at 8 times MIC incubated for 4 hrs by SEM analysis; type: functional, organism-based
[19] = Toxicity in KM mouse assessed as change in RBC count at 20 mg/kg, sc measured after 24 hrs; type: organism-based; settings: in vivo
[20] = Toxicity in KM mouse assessed as animal survival at 5 to 80 mg/kg, sc; type: organism-based; settings: in vivo, dose 5-80 mg/kg
Staphylococcus aureus [21] = experiment: Bactericidal activity against methicillin-resistant Staphylococcus aureus clinical isolate M12 at 8 times MIC incubated upto 8 hrs by time-kill assay; type: functional, organism-based
Staphylococcus aureus [22] = experiment: Antibacterial activity against methicillin-resistant Staphylococcus aureus clinical isolate M12 infected in sepsis BALB/c mouse model assessed as decrease in degeneration of hepatocytes at 6 mg/kg, ip administered consecutively at 12 hr-interval for 24 hrs measured after 24 hrs post-last dose by H and E staining based analysis; type: functional, organism-based; settings: time 48.0 hrs
[23] = Toxicity in KM mouse infected with methicillin-resistant Staphylococcus aureus clinical isolate M12 assessed as histopathological abnormality in kidney at 5 to 10 mg/kg, sc measured after 24 hrs by H and E staining based analysis; type: organism-based; settings: in vivo, dose 5-10 mg/kg
[24] = Cytotoxicity against human L02 cells assessed as cell viability at 64 ug/ml by CCK8 assay relative to control; type: toxicity, cell-based; settings: at 64 µg/mL, read-out: Activity
[25] = Toxicity in sepsis BALB/c mouse model infected with methicillin-resistant Staphylococcus aureus clinical isolate M12 assessed as survival rate at 12 mg/kg, ip administered consecutively at 12 hr-interval for 7 days measured after 24 hrs post-last dose; type: organism-based; settings: in vivo, 192 h, time 8 day
Staphylococcus aureus [26] = experiment: Antibacterial activity against methicillin-resistant Staphylococcus aureus clinical isolate M12 infected in KM mouse assessed as smooth skin at infection site at 10 mg/kg, sc measured after 24 hrs; type: functional, organism-based

With `C=CCc1cc(-c2ccc(OCCC[N+](C)(C)CC(=O)NCCCC)c(CC=C)c2)c2oc(=S)n(Cc3ccc(F)cc3)c2c1.[Br-]` the Activity (Staphylococcus aureus [1]) was 92.72%, the “fold change (FC)” value (Staphylococcus aureus [2]) was roughly 4 and the Activity [3] was “Non-Toxic”. For the same compound, the Activity [4] was “Non-Toxic”, the Activity [5] was “Non-Toxic” and the Activity (Staphylococcus aureus [6]) was “Active”. For the same compound, the Activity (Staphylococcus aureus [7]) was “Active”, the MIC (Escherichia coli) was greater than 128 µg/mL and the Activity (Staphylococcus aureus [8]) was 1.4 log10CFU/g. For the same compound, the Activity (Staphylococcus aureus [9]) was 99.67%, the Activity (Staphylococcus aureus [10]) was 100% and the MIC (Staphylococcus aureus [11]) was 2 µg/mL. For the same compound, the Activity [12] was “Non-Toxic”, the Activity [13] was “Non-Toxic” and the Activity [14] was “Non-Toxic”. For the same compound, the Activity (Staphylococcus aureus [15]) was “Active”, the Activity [16] was “Non-Toxic” and the Activity (Staphylococcus aureus [17]) was “Active”. For the same compound, the Activity (Staphylococcus aureus [18]) was “Active”, the Activity [19] was “Non-Toxic” and the Activity [20] was “Non-Toxic”. For the same compound, the Activity (Staphylococcus aureus [21]) was “Active”, the Activity (Staphylococcus aureus [22]) was “inactive” and the Activity [23] was “Non-Toxic”. The viability at 64 ug/ml [24] was roughly 70%, the Survival [25] was 33.3% and the Activity (Staphylococcus aureus [26]) was “Active”.
